Target: SARS-CoV M^pro (Severe acute respiratory syndrome-related coronavirus, UniProt P0C6X7)
Assay: biochemical
Assay type: biochemical

O=C(/C=C/c1ccccc1)N[C@@H](Cc1ccccc1)C(=O)N[C@@H](C[C@@H]1CCNC1=O)C(=O)C(=O)NCc1ccccc1 [11a, (S)-N-benzyl-3-((S)-2-cinnamamido-3-phenylpropanamido)-2-oxo-4-((S)-2-oxopyrrolidin-3-yl)butanamide]
IC50: 1950 ± 240 nM

CC(C)(C)OC(=O)N[C@@H](C[C@@H]1CCNC1=O)C(=O)C(=O)NCc1ccccc1 [11f, tert-Butyl ((S)-4-(benzylamino)-3,4-dioxo-1-((S)-2-oxopyrrolidin-3-yl)butan-2-yl)carbamate]
IC50: > 50000 nM

CC(C)C[C@H](NC(=O)/C=C/c1ccccc1)C(=O)N[C@@H](C[C@@H]1CCNC1=O)C(=O)C(=O)NCc1ccccc1 [11n, (S)-N-((S)-4-(benzylamino)-3,4-dioxo-1-((S)-2-oxopyrrolidin-3-yl)butan-2-yl)-2-cinnamamido-4-methylpentanamide]
IC50: 330 ± 40 nM

O=C(/C=C/c1ccccc1)N[C@@H](CC1CCCCC1)C(=O)N[C@@H](C[C@@H]1CCNC1=O)C(=O)C(=O)NCc1ccccc1 [11r, (S)-N-benzyl-3-((S)-2-cinnamamido-3-cyclohexylpropanamido)-2-oxo-4-((S)-2-oxopyrrolidin-3-yl)butanamide]
IC50: 710 ± 360 nM

CCCC[C@H](NC(=O)/C=C/c1ccccc1)C(=O)N[C@@H](C[C@@H]1CCNC1=O)C(=O)C(=O)NCc1ccccc1 [11o, (S)-N-((S)-4-(benzylamino)-3,4-dioxo-1-((S)-2-oxopyrrolidin-3-yl)butan-2-yl)-2-cinnamamidohexanamide]
IC50: 8500 ± 3710 nM

O=C(/C=C/c1ccccc1)N[C@H](C(=O)N[C@@H](C[C@@H]1CCNC1=O)C(=O)C(=O)NCc1ccccc1)C1CC1 [11q, (S)-N-benzyl-3-((S)-2-cinnamamido-2-cyclopropylacetamido)-2-oxo-4-((S)-2-oxopyrrolidin-3-yl)butanamide]
IC50: 6270 ± 2870 nM

C#CC[C@H](NC(=O)/C=C/c1ccccc1)C(=O)N[C@@H](C[C@@H]1CCNC1=O)C(=O)C(=O)NCc1ccccc1 [11p, (S)-N-((S)-4-(benzylamino)-3,4-dioxo-1-((S)-2-oxopyrrolidin-3-yl)butan-2-yl)-2-cinnamamidopent-4-ynamide]
IC50: 10700 ± 7340 nM

O=C(/C=C/c1ccccc1)N[C@@H](CC1CC1)C(=O)N[C@@H](C[C@@H]1CCNC1=O)C(=O)C(=O)NCc1ccccc1 [11s, (S)-N-benzyl-3-((S)-2-cinnamamido-3-cyclopropylpropanamido)-2-oxo-4-((S)-2-oxopyrrolidin-3-yl)butanamide]
IC50: 240 ± 80 nM

O=C(/C=C/c1ccccc1)N[C@@H](CC1CCCC1)C(=O)N[C@@H](C[C@@H]1CCNC1=O)C(=O)C(=O)NCc1ccccc1 [11u, (S)-N-benzyl-3-((S)-2-cinnamamido-3-cyclopentylpropanamido)-2-oxo-4-((S)-2-oxopyrrolidin-3-yl)butanamide]
IC50: 1270 ± 340 nM

O=C(/C=C/c1ccccc1)N[C@@H](Cc1ccc(F)cc1)C(=O)N[C@@H](C[C@@H]1CCNC1=O)C(=O)C(=O)NCc1ccccc1 [11m, (S)-N-benzyl-3-((S)-2-cinnamamido-3-(4-fluorophenyl)propanamido)-2-oxo-4-((S)-2-oxopyrrolidin-3-yl)butanamide]
IC50: > 50000 nM

O=C(/C=C/c1ccccc1)N[C@@H](CC1CCC1)C(=O)N[C@@H](C[C@@H]1CCNC1=O)C(=O)C(=O)NCc1ccccc1 [11t, (S)-N-benzyl-3-((S)-2-cinnamamido-3-cyclobutylpropanamido)-2-oxo-4-((S)-2-oxopyrrolidin-3-yl)butanamide]
IC50: 1440 ± 400 nM
